Test results published in patent publication US7265103B2, “Substituted amino isoxazoline derivatives and their use as anti-depressants” (Janssen Pharmaceutica NV., priority 2002, dated 2007).
pIC50: −log10 of the molar value.

What was measured:
hα2A receptor = biological target: T1, hα2A receptor (Homo sapiens, UniProt P08913); test: Radioligand binding experiment for α2A-adrenergic receptor ([3H]-raulwolscine); conditions: CHO cell membranes with human α2A receptor, [3H]raulwolscine 1 nM; read-out: pIC50 α2A (converted)
T1 construct: expressed in transfected cells; host or cells: CHO cells
T1 sequence (P08913 1-465): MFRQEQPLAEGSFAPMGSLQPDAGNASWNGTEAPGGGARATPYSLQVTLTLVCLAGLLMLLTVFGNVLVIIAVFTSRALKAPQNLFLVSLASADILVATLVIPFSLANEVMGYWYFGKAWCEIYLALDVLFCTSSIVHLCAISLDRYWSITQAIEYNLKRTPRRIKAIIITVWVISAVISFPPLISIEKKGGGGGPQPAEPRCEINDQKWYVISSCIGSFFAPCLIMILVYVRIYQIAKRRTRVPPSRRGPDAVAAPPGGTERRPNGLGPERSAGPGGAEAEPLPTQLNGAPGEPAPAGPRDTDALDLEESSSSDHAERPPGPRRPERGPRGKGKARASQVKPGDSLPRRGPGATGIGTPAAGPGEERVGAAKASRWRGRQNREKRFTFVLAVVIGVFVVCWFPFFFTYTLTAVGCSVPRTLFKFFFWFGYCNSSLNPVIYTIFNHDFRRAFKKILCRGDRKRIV
Experimental: (§1) The interaction of the compounds of Formula (I) with hα2-receptors and h5-HT-transporters was assessed in in vitro radioligand binding experiments. In general, a low concentration of a radioligand with a high binding affinity for a particular receptor or transporter is incubated with a sample of a tissue preparation enriched in a particular receptor or transporter or with a preparation of cells expressing cloned human receptors in a buffered medium. During the incubation, the radioligand binds to the receptor or transporter. When equilibrium of binding is reached, the receptor bound radioactivity is separated from the non-bound radioactivity, and the receptor- or transporter-bound activity is counted. The interaction of the test compounds with the receptor is assessed in competition binding experiments. Various concentrations of the test compound are added to the incubation mixture containing the receptor- or transporter preparation and the radioligand. The test compound in proportion to its binding affinity and its concentration inhibits binding of the radioligand. The radioligand used for hα2A, hα2B and hα2C receptor binding was [^3H]-raulwolscine and for the h5-HT transporter was [^3H]paroxetine.
(§2) CHO cells, stabile transfected with human adrenergic-α2A-, -α2B or α2C receptor cDNA, were cultured in Dulbecco's Modified Eagle's Medium (DMEM)/Nutrient mixture Ham's F12 (ratio 1:1)(Gibco, Gent-Belgium) supplemented with 10% heat inactivated fetal calf serum (Life Technologies, Merelbeke-Belgium) and antibiotics (100 IU/ml penicillin G, 100 μg/ml streptomycin sulphate, 110 μg/ml pyruvic acid and 100 μg/ml L-glutamine). One day before collection, cells were induced with 5 mM sodiumbutyrate. Upon 80-90% of confluence, cells were scraped in phosphate buffered saline without Ca^2+ and Mg^2+ and collected by centrifugation at 1500×g for 10 min. The cells were homogenised in Tris-HCl 50 mM using an Ultraturrax homogenizer and centrifuged for 10 min at 23,500×g. The pellet was washed once by resuspension and rehomogenization and the final pellet was resuspended in Tris-HCl, divided in 1 ml aliquots and stored at −70° C.
(§3) Membranes were thawed and re-homogenized in incubation buffer (glycylglycine 25 mM, pH 8.0). In a total volume of 500 μl, 2-10 μg protein was incubated with [^3H]raulwolscine (NET-722) (New England Nuclear, USA) (1 nM final concentration) with or without competitor for 60 min at 25° C. followed by rapid filtration over GF/B filter using a Filtermatel 96 harvester (Packard, Meriden, Conn.). Filters were rinsed extensively with ice-cold rinsing buffer (Tris-HCl 50 mM pH 7.4). Filter-bound radioactivity was determined by scintillation counting in a Topcount (Packard, Meriden, Conn.) and results were expressed as counts per minute (cpm). Non-specific binding was determined in the presence of 1 μM oxymetazoline for hα2A- and hα2B receptors and 1 μM spiroxatrine for hα2C receptors.
(§4) Data from assays in the presence of compound were calculated as a percentage of total binding measured in the absence of test compound. Inhibition curves, plotting percent of total binding versus the log value of the concentration of the test compound, were automatically generated, and sigmoidal inhibition curves were fitted using non-linear regression. The pIC50 values of test compounds were derived from individual curves.

hα2C receptor = biological target: T2, hα2C receptor (Homo sapiens, UniProt P18825); test: Radioligand binding experiment for α2C-adrenergic receptor ([3H]-raulwolscine); conditions: CHO cell membranes with human α2C receptor, [3H]raulwolscine 1 nM; read-out: pIC50 α2C (converted)
T2 construct: expressed in transfected cells; host or cells: CHO cells
T2 sequence (P18825 1-462): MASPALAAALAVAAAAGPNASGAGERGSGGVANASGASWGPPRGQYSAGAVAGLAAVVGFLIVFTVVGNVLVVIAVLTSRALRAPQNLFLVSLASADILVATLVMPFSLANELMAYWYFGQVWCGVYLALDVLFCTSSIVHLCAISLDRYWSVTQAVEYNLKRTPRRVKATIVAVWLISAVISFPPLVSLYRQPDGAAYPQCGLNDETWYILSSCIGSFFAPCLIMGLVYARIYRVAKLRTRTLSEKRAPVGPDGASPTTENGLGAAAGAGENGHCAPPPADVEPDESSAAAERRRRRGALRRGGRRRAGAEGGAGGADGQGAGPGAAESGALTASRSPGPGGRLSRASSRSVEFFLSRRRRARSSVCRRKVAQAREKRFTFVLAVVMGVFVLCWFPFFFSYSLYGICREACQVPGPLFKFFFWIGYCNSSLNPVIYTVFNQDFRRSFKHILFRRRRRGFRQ
Experimental: as §1, §2, §3, §4

h5-HT transporter = biological target: T3, h5-HT transporter (Homo sapiens, UniProt P31645); test: Radioligand binding experiment for 5-HT transporter ([3H]paroxetine); conditions: human platelet membranes, [3H]paroxetine 0.5 nM
T3 construct: Human platelet membranes (Oceanix Biosciences Corporation, Hanover, Md., USA) were thawed; tissue Oceanix Biosciences Corporation; host or cells: human platelet membranes
T3 sequence (P31645 whole entry): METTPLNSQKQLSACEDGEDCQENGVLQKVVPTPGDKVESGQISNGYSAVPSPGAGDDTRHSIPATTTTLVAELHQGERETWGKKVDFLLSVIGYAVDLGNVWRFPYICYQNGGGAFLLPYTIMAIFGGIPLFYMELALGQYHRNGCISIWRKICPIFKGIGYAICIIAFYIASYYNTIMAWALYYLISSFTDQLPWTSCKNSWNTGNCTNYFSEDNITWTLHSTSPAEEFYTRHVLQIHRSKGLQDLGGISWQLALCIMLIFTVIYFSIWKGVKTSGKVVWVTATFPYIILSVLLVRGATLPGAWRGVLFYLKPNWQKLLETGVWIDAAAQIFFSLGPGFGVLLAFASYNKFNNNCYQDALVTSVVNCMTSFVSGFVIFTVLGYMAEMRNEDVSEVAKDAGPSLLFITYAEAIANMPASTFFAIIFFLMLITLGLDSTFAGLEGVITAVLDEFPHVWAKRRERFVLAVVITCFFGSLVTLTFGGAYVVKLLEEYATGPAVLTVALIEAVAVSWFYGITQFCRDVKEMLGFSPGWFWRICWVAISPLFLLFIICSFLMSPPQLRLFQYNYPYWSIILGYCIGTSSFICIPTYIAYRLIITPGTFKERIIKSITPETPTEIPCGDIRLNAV
Experimental: as §1
Human platelet membranes (Oceanix Biosciences Corporation, Hanover, Md., USA) were thawed, diluted in buffer (Tris-HCl 50 mM, 120 mM NaCl and 5 mM KCl) and quickly (max 3 s) homogenised with an Ultraturrax homogenizer. In a total volume of 250 μL, 50-100 μg protein was incubated with [^3H]paroxetine (NET-869) (New England Nuclear, USA) (0.5 nM final concentration) with or without competitor for 60 min at 25° C. Incubation was stopped by rapid filtration of the incubation mixture over GF/B filters, pre-wetted with 0.1% polyethyleneamine, using a Filtermatel 96 harvester (Packard, Meriden, Conn.). Filters were rinsed extensively with ice-cold buffer and radioactivity on the filters was counted in a Topcount liquid scintillation counter (Packard, Meriden, Conn.). Data were expressed as cpm. Imipramine (at 1 μM final concentration) was used to determine the non-specific binding.
as §4

SMILES: CC(=Cc1ccc(F)cc1)CN1CCN(CC2ON=C3c4ccc(N(C)CCNC5CCC5)cc4OCC32)CC1 (stereo not drawn) [Compound 111]
- IC50 (hα2A receptor): 25.1 nM
- IC50 (hα2C receptor): 6.31 nM
- pIC50 (h5-HT transporter): 7.90

SMILES: CC(=Cc1ccc(F)cc1)CN1CCN(CC2ON=C3c4ccc(N(C)CCNCC5CC5)cc4OCC32)CC1 (stereo not drawn) [Compound 118]
- IC50 (hα2A receptor): 12.6 nM
- IC50 (hα2C receptor): 3.16 nM
- pIC50 (h5-HT transporter): 8.50

SMILES: CC(=Cc1ccc(F)cc1)CN1CCN(CC2ON=C3c4ccc(N(C)CCO)cc4OCC32)CC1 (stereo not drawn) [Compound 38]
- IC50 (hα2A receptor): 79.4 nM
- IC50 (hα2C receptor): 1.58 nM
- pIC50 (h5-HT transporter): 7.90

SMILES: CC(=Cc1ccccc1)CN1CCN(CC2ON=C3c4ccc(N(C)Cc5ccccc5)cc4OCC32)CC1 (stereo not drawn) [Compound 47]
- IC50 (hα2A receptor): 2.51 nM
- IC50 (hα2C receptor): 3.16 nM
- pIC50 (h5-HT transporter): 7.30

SMILES: CCC(C)CNc1cc2c(cc1OC)C1=NOC(CN3CCN(CC(C)=Cc4ccc(F)cc4)CC3)C1CO2 (stereo not drawn) [Compound 104]
- IC50 (hα2A receptor): 126 nM
- IC50 (hα2C receptor): 126 nM
- pIC50 (h5-HT transporter): 6.50

SMILES: C=CC(=O)Nc1cc2c(cc1OC)C1=NOC(CN3CCN(CC(C)=Cc4ccc(F)cc4)CC3)C1CO2 (stereo not drawn) [Compound 106]
- IC50 (hα2A receptor): 6.31 nM
- IC50 (hα2C receptor): 12.6 nM
- pIC50 (h5-HT transporter): 7.50

SMILES: COc1cc2c(cc1N(C)CCO)OCC1C2=NOC1CN1CCN(CC(C)=Cc2ccc(F)cc2)CC1 (stereo not drawn) [Compound 39]
- IC50 (hα2A receptor): 50.1 nM
- IC50 (hα2C receptor): 10 nM
- pIC50 (h5-HT transporter): 7.10

SMILES: CC(=Cc1ccc(F)cc1)CN1CCN(CC2ON=C3c4ccc(N5CCNCC5)cc4OCC32)CC1 (stereo not drawn) [Compound 136]
- IC50 (hα2A receptor): 39.8 nM
- IC50 (hα2C receptor): 5.01 nM
- pIC50 (h5-HT transporter): 8.10

SMILES: CCC(C)C(=O)Nc1cc2c(cc1OC)C1=NOC(CN3CCN(CC(C)=Cc4ccc(F)cc4)CC3)C1CO2 (stereo not drawn) [Compound 114]
- IC50 (hα2A receptor): 25.1 nM
- IC50 (hα2C receptor): 20 nM
- pIC50 (h5-HT transporter): 7.50

SMILES: CC(=Cc1ccc(F)cc1)CN1CCN(CC2ON=C3c4ccc(N5CCCCCC5)cc4OCC32)CC1 (stereo not drawn) [Compound 125]
- IC50 (hα2A receptor): 200 nM
- IC50 (hα2C receptor): 158 nM
- pIC50 (h5-HT transporter): 6.80

SMILES: CCC(C)NC(=O)OCCN(C)c1ccc2c(c1)OCC1C2=NOC1CN1CCN(CC(C)=Cc2ccc(F)cc2)CC1 (stereo not drawn) [Compound 127]
- IC50 (hα2A receptor): 316 nM
- IC50 (hα2C receptor): 158 nM
- pIC50 (h5-HT transporter): 6.70

SMILES: CC(=Cc1ccc(F)cc1)CN1CCN(CC2ON=C3c4ccc(N(C)CCN(C)C(C)(C)C)cc4OCC32)CC1 (stereo not drawn) [Compound 122]
- IC50 (hα2A receptor): 39.8 nM
- IC50 (hα2C receptor): 7.94 nM
- pIC50 (h5-HT transporter): 8.20

SMILES: CC(=Cc1ccc(F)cc1)CN1CCN(CC2ON=C3c4ccc(N(C)CCN)cc4OCC32)CC1 (stereo not drawn) [Compound 19]
- IC50 (hα2A receptor): 12.6 nM
- IC50 (hα2C receptor): 2.51 nM
- pIC50 (h5-HT transporter): 8.00

SMILES: COc1cc2c(cc1N1CCN(C)CC1)OCC1C2=NOC1CN1CCN(CC(C)=Cc2cccc(F)c2)CC1 (stereo not drawn) [Compound 76]
- IC50 (hα2A receptor): 3.98 nM
- IC50 (hα2C receptor): 0.794 nM
- pIC50 (h5-HT transporter): 8.50

SMILES: COc1cc2c(cc1N)OCC1C2=NOC1CN1CCN(CC(C)=Cc2cccc(F)c2)CC1 (stereo not drawn) [Compound 86]
- IC50 (hα2A receptor): 6.31 nM
- IC50 (hα2C receptor): 1.58 nM
- pIC50 (h5-HT transporter): 8.30

SMILES: CC(=Cc1ccc(F)cc1)CN1CCN(CC2ON=C3c4ccc(N(C)CCN(C)C)cc4OCC32)CC1 (stereo not drawn) [Compound 23]
- IC50 (hα2A receptor): 10 nM
- IC50 (hα2C receptor): 2 nM
- pIC50 (h5-HT transporter): 8.30

SMILES: CC(=Cc1ccc(F)cc1)CN1CCN(CC2ON=C3c4ccc(NC(=O)OC(C)(C)C)cc4OCC32)CC1 (stereo not drawn) [Compound 58]
- IC50 (hα2A receptor): 63.1 nM
- IC50 (hα2C receptor): 31.6 nM
- pIC50 (h5-HT transporter): 7.50

SMILES: CC(=Cc1cccc(F)c1)CN1CCN(CC2ON=C3c4ccc(N(C)CCO)cc4OCC32)CC1 (stereo not drawn) [Compound 35]
- IC50 (hα2A receptor): 3.16 nM
- IC50 (hα2C receptor): 1.26 nM
- pIC50 (h5-HT transporter): 8.10

SMILES: CNc1ccc2c(c1)OCC1C2=NOC1CN1CCN(CC(C)=Cc2ccccc2)CC1 (stereo not drawn) [Compound 87]
- IC50 (hα2A receptor): 2.51 nM
- IC50 (hα2C receptor): 3.16 nM
- pIC50 (h5-HT transporter): 7.30

SMILES: COc1cc2c(cc1NC(=O)C1CC1)OCC1C2=NOC1CN1CCN(CC(C)=Cc2cccc(F)c2)CC1 (stereo not drawn) [Compound 53]
- IC50 (hα2A receptor): 3.98 nM
- IC50 (hα2C receptor): 0.631 nM
- pIC50 (h5-HT transporter): 8.00

SMILES: COc1cc2c(cc1NCC1(C)CC1)OCC1C2=NOC1CN1CCN(CC(C)=Cc2ccc(F)cc2)CC1 (stereo not drawn) [Compound 128]
- IC50 (hα2A receptor): 200 nM
- IC50 (hα2C receptor): 200 nM
- pIC50 (h5-HT transporter): 6.80

SMILES: C/C(=C\c1ccccc1)CN1CCN(CC2ON=C3c4cc5c(cc4OCC32)N(C)CCO5)CC1 (stereo not drawn) [Compound 14]
- IC50 (hα2A receptor): 15.8 nM
- IC50 (hα2C receptor): 5.01 nM
- pIC50 (h5-HT transporter): 7.50

SMILES: CNc1cc2c(cc1OC)C1=NOC(CN3CCN(CC(C)=Cc4ccccc4)CC3)C1CO2 (stereo not drawn) [Compound 88]
- IC50 (hα2A receptor): 5.01 nM
- IC50 (hα2C receptor): 1.26 nM
- pIC50 (h5-HT transporter): 7.70

SMILES: C/C(=C\c1ccccc1)CN1CCN(CC2ON=C3c4ccc(NC(=O)[C@@H]5CCCN5)cc4OCC32)CC1 (stereo partly drawn) [Compound 57]
- IC50 (hα2A receptor): 5.01 nM
- IC50 (hα2C receptor): 0.631 nM
- pIC50 (h5-HT transporter): 7.60

SMILES: C/C(=C\c1ccccc1)CN1CCN(CC2ON=C3c4ccc(N(C)CCN(C)C)cc4OCC32)CC1 (stereo not drawn) [Compound 1]
- IC50 (hα2A receptor): 1.26 nM
- IC50 (hα2C receptor): 1 nM
- pIC50 (h5-HT transporter): 8.20
